From US7566737B2 (Genfit, priority 2002, dated 2009)

Legend:
[1] = tested on: HaCat cells; test: Antioxidant properties on cell cultures (carboxy-H2DCFDA fluorescence, AAPH stress), keratinocytes; assay type: cell-based, human; conditions: 25 μM for 24 h, AAPH 750 μM
Description: (§1) The reduction in the intensity of the emitted fluorescence signal was determined in cells treated with the compounds in the following manner.
(§2) Prior to stress the cells with an oxidative agent such as AAPH (CAS number 2997-92-4), cells are incubated with compounds of interest at 25 μM for 24 h. Then the culture medium is discarded and cells are rinsed two times with PBS. Cells are then incubated 30 min at 37° C. with a cell-permeant indicator for reactive oxygen species that is nonfluorescent until the acetate groups are removed by intracellular esterases and oxidation occurs within the cell 5-(and-6)-carboxy-2′,7′-dichlorodihydrofluorescein diacetate (carboxy-H2DCFDA). The probes are prepared in PBS and incubated at the final concentration of 25 μM. After the incubation with the probe, cells are rinsed and incubated another 30 min with the oxidative solution containing AAPH at 750 μM in culture medium without phenol red and serum.
(§3) The fluorescence is then measured with a fluorimeter with the following wavelength, […].
(§4) Two different cell types have been tested with the inventive compounds. Human normal primary fibroblasts and HaCat cells which are a human keratinocyte cell line.

[2] = tested on: hApoE2 Knock-in transgenic mice; test: Effects on triglycerides and cholesterol metabolism in vivo; set-up: species or system mouse
Description: Treatment of animals: hApoE2 knock-in transgenic mice were kept on a 12-hour light/dark cycle at a constant temperature of 20±3° C. After a 1 week acclimation, mice were separated in groups of 6 animals selected such that the distribution of their body weight and plasmatic lipid levels determined before the experiment were uniform. The test compounds were suspended in carboxymethylcellulose and administered by intragastric gavage at the indicated doses, once a day for 7 or 8 days. Animals had access to food and water ad libitum. At the end of the experiment the animals were weighed and sacrificed under anesthesia. Blood was collected on EDTA. Plasma was prepared by centrifugation at 3000 rpm for 20 minutes. Organs were harvested, frozen in liquid nitrogen and stored at −80° C. for subsequent analysis.
Measurement of serum lipids: Serum lipid concentrations (total cholesterol and triglycerides) were determined by a colorimetric assay (Boehringer, Mannheim, Germany) according to the supplier's instructions.

[3] = tested on: Human normal primary fibroblasts; test: Antioxidant properties on cell cultures (carboxy-H2DCFDA fluorescence, AAPH stress), fibroblasts; assay type: cell-based; conditions: 25 μM for 24 h, AAPH 750 μM
Description: as §1, §2, §3, §4

[4] = tested on: C57BLKS-m Lepr^db transgenic mice; test: Antidiabetic effect on insulin and glucose; assay type: in vivo, mouse; conditions: 0.1 to 30 mg/Kg/day for 21 days
Description: Genetically modified C57BLKS-m Lepr^db mice were used to asses antidiabetic effect of the inventive compounds. Mice were randomized according to their plasma lipid, glucose and insulin contents. Treatments were administered once daily by gavage (10 ml/kg) for the duration of the treatment. For oral administrations, the drugs were suspended in CMC 1% or CMC 1%+Tween 80 0.1%. The plasma glucose was measured using a kit reagent from Biomerieux (France). The plasma insulin was measured using a solid phase two-site enzyme immunoassay from Crystal Chem Inc. (USA). The results are exemplified in FIGS. 5-1 to 5-4 which illustrate the activity of inventive compounds 29 and 62 on glucose and insulin.

[5] = target: T1, human PPARα (Homo sapiens, UniProt Q07869); test: PPARα/Gal4 transactivation system; assay type: cell-based; conditions: PPAR/Gal4 transactivation system
T1 construct: expressed in transfected cells; host or cells: RK13 or COS-7
T1 sequence (Q07869 239-466 limits assumed): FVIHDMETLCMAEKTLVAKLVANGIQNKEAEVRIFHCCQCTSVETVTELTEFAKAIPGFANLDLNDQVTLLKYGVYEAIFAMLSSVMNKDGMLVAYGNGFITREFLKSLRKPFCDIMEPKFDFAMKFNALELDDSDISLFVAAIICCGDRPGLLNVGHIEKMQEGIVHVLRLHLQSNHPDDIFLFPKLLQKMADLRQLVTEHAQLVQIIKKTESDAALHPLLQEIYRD
Description: (§5) PPAR activation was tested in vitro in RK13 or COS-7 fibroblast cell lines by measuring the transcriptional activity of chimeras composed of the DNA binding domain of the yeast Gal4 transcription factor and the ligand binding domain of the different PPARs. These latter results were then confirmed in cell lines according to the following protocols.
(§6) Culture protocols: RK13 were from ECACC (Porton Down, UK) and were grown in DMEM medium supplemented with 10% (V/V) fetal calf serum, 100 U/ml penicillin (Gibco, Paisley, UK) and 2 mM L-glutamine (Gibco, Paisley, UK). COS-7 cells were from ATCC and were grown in DMEM medium supplemented with 10% (V/V) fetal calf serum, 1% penicillin/streptomycine (Biochrom, AG), 1% of amino acids (Gibco) and 1% sodium pyruvate (Gibco).
(§7) The culture medium was changed every two days. Cells were kept at 37° C. in a humidified 95% air/5% CO2 atmosphere.
(§8) Description of plasmids used for transfection: The plasmids Gal4(RE)_TkpGL3, pGal4-hPPARα, pGal4-hPPARγ, pGal4-hPPARδ and pGal4-φ have been described in the literature (Raspe E et al., 1999). The pGal4-hPPARα, pGal4-hPPARγ and pGal4-hPPARδ constructs were obtained by cloning into the pGal4-φ vector PCR-amplified DNA fragments corresponding to the DEF domains of the human PPARs nuclear receptors.
(§9) Transfection of RK13: RK13 cells were seeded in 24-well culture dishes at 5×10^4 cells/well and transfected for 2 hours with the reporter plasmid Gal4(RE)_TkpGL3 (50 ng/well), the expression vectors pGal4-φ, pGal4-hPPARα, pGal4-hPPARγ and pGal-hPPARδ (100 ng/well) and the transfection efficiency control vector pRL-CMV (1 ng/well) according to the previously described protocol (Raspe E, Madsen L, Lefebvre A M, Leitersdorf I, Gelman L, Peinado-Onsurbe J, Dallongeville J, Fruchart J C, Berge R and Staels B, 1999), then incubated for 36 hours with the test compounds. RK13 cells were incubated with the different compounds at concentrations of 10, 30 and 100 μM or 1, 10 and 100 μM for 24 hours. At the end of the experiment, the cells were lysed (Gibco, Paisley, UK) and luciferase activity was determined with a Dual-Luciferase™ Reporter Assay System kit (Promega, Madison, Wis., USA) according to the supplier's instructions. The protein content of the cell extracts was then measured with the Bio-Rad Protein Assay (Bio-Rad, Munich, Germany) as directed by the supplier.
(§10) Transfection of COS7: Cells in suspension are transfected, in the presence of 10% (V/V) fetal calf serum, with 150 ng of DNA per well with a pGal4-PPAR/Gal4(RE)_TkpGL3 ratio of 1/10. Cells are then seeded in 96 well plates (4×10^4 cells/well) and incubated for 24 hours at 37° C. Activation with compounds is performed on 24 hours at 37° C. in culture medium without serum. At the end of the activation period, cells are lysed and luciferase activity is determined, using the Steady Glow Luciferase Kit (Promega), according to the supplier's instructions.

[6] = target: T2, human PPARδ (Homo sapiens, UniProt Q03181); test: PPARδ/Gal4 transactivation system; assay type: cell-based; conditions: PPAR/Gal4 transactivation system
T2 construct: expressed in transfected cells; host or cells: RK13 or COS-7
T2 sequence (Q03181 211-439 limits assumed): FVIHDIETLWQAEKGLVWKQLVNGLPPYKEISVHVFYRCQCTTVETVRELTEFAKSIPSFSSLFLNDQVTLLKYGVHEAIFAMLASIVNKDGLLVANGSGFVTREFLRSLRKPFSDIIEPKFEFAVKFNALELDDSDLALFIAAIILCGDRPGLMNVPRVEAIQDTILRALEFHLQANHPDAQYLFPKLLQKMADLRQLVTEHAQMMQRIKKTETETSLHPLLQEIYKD
Description: as §5, §6, §7, §8, §9
Transfection of COS7: Cells in suspension are transfected, in the presence of 10% (V/V) fetal calf serum, with 150 ng of DNA per well with a pGal4-PPAR/Gal4(RE)_TkpGL3 ratio of 1/10. […] At the end of the activation period, cells are lysed and luciferase activity is determined, using the Steady Glow Luciferase Kit (Promega), according to the supplier's instructions.

[7] = target: T3, human PPARγ (Homo sapiens, UniProt P37231); test: PPARγ/Gal4 transactivation system; assay type: cell-based; conditions: PPAR/Gal4 transactivation system
T3 construct: expressed in transfected cells; host or cells: RK13 or COS-7
T3 sequence (P37231 238-503 limits assumed): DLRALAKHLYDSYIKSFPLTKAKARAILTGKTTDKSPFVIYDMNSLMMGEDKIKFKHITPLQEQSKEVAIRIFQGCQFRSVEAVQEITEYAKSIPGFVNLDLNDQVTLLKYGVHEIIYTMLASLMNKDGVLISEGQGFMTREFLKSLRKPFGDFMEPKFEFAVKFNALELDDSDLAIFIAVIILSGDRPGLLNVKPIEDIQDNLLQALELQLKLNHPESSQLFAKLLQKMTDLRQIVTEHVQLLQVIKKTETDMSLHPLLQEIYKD
Description: as §5, §6, §7, §8, §9, §10

[8] = tested on: C57 black/6 mice; test: Acute neuroprotection, cerebral ischemia-reperfusion model (middle cerebral artery occlusion); assay type: in vivo, mouse; conditions: 200 mg/kg/day for 72 hours after occlusion; untreated 41
Description: Animals such as those described previously were used for this experiment. Animals were anesthetized by intraperitoneal injection of 300 mg/kg chloral hydrate. A rectal probe was inserted and body temperature was maintained at 37° C.±0.5° C. Blood pressure was monitored throughout the experiment. Under a surgical microscope, the right carotid artery was exposed by a median incision in the neck. The pterygopalatine artery was ligated at its origin and an arteriotomy was fashioned in the external carotid artery so as to insert a nylon monofilament, which was gently advanced to the common carotid artery and then into the internal carotid artery so as to occlude the origin of the middle cerebral artery. The filament was withdrawn one hour later to allow reperfusion.
Animals first subjected to ischemia-reperfusion were treated with the inventive compounds by the oral or systemic route one or more times after reperfusion.
(§11) Seventy-two hours after reperfusion, animals previously treated or not with the compounds were euthanized by pentobarbital overdose. Brains were rapidly frozen and sliced. Sections were stained with cresyl violet. […] Areas were measured and the volume of the infarct and the two hemispheres was calculated by the following formula: (corrected infarct volume=infarct volume−(volume of right hemisphere−volume of left hemisphere)) to compensate for cerebral oedema. […]

[9] = tested on: C57Black/6 mice; test: Prophylactic neuroprotection, cerebral ischemia-reperfusion model (middle cerebral artery occlusion); assay type: in vivo, mouse; conditions: gavage 200 mg/kg/day for 14 days before occlusion; 60 minutes occlusion, 24 hours reperfusion; untreated 37
Description: C57 black/6 mice (wild-type) were used for this experiment. Animals were maintained on a 12 hour light-dark cycle at a temperature of 20° C.±3° C. Water and food were available ad libitum. Food intake and weight gain were recorded all along the experiment. The inventive compounds (200 mg/kg/day) or the vehicle (0.5% carboxycellulose (CMC)) were administered to the animals by gavage, for 14 days before ischemia induction in the middle cerebral artery.
Animals were anesthetized by intraperitoneal injection of 300 mg/kg chloral hydrate. A rectal probe was inserted and body temperature was maintained at 37° C.±0.5° C. Blood pressure was monitored throughout the experiment. Under a surgical microscope, the right carotid artery was exposed by a median incision in the neck. […]
as §11, with “Twenty-four” for “Seventy-two”, “overdose.” for “overdose. Brains were rapidly frozen and sliced. Sections were stained with cresyl violet.”

[10] = 1, 3, 10 and 30 mg/kg/day for 14 days

SMILES | antioxidant properties on cell cultures (in words) [1] | plasma cholesterol ([2]; 50 mg/kg/day for 7 or 8 days, FIGS. 4-13, 4-15, 4-17, 4-19) | plasma triglycerides ([2]; 50 mg/kg/day for 7 or 8 days, FIGS. 4-14, 4-16, 4-18, 4-20) | plasma cholesterol [2, 10] | plasma triglycerides [2, 10] | antioxidant properties on cell cultures (in words) [3] | plasma glucose level [4] | plasma insulin level [4] | concentration at which maximal activity is observed [5] [µM] | concentration at which maximal activity is observed [6] [µM] | concentration at which maximal activity is observed [7] [µM] | total corrected infarct volume [8] [mm^3] | infarct volume [9] [mm^3]
Cc1cc(/C=C/C(=O)c2ccc(OC(F)(F)F)cc2)cc(C)c1OC(C)(C)C(=O)O [Compound 62] | antioxidant properties | decrease | decrease | decrease | decrease | antioxidant properties | decrease | decrease | 0.3 | 3 | 10 | – | –
CC(C)OC(=O)C(C)(C)Oc1ccc(/C=C/C(=O)c2ccccc2O)cc1 [Compound 42] | – | – | – | – | – | – | – | – | – | – | – | 29 | 24
Cc1cc(/C=C/C(=O)c2ccc(Cl)cc2)cc(C)c1OC(C)(C)C(=O)OC(C)C [Compound 15, 1-[4-chlorophenyl]-3-[3,5-dimethyl-4-isopropyloxycarbonyldimethylmethyloxyphenyl]prop-2-en-1-one] | – | – | – | – | – | – | – | – | – | – | – | 29 | 32
